From patent publication US9951021B2, “Compounds for inhibiting c-Myc/Max/DNA complex formation” (NATIONAL CANCER CENTER, priority 2016, dated 2018)
pIC50: −log10 of the molar value.

Tests used:
UM-UC-3 = assay: Selectivity evaluation, cytotoxicity in UM-UC-3; assay type: cell-based; conditions: Homo sapiens, UMUC3; UM-UC-3 (malignant), 72 hours, ATP detection
Experimental: (§1) Commercially available bladder cancer cell lines were treated with trypsin-EDTA and seeded in each well of a 96 well plate, followed by incubation for 24 hours. After incubation, candidate compounds were added to each well at a final concentration of 0 to 2 μM. The compound-treated cells were further incubated for 72 hours. Cell viability was measured using an ATP detection method (CellTiter-Glo® Luminescent Cell Viability Assay, Promega).
(§2) The selectivity of the compounds of the present disclosure to cancer cells was evaluated in the same manner as described in “2. Cell based assay”.
UM-UC-3: human urinary bladder transitional cell carcinoma

recombinant c-Myc/Max = biological target: T1, recombinant c-Myc/Max (Homo sapiens, UniProt P01106+P61244); assay: Electrophoretic mobility shift assay (EMSA): inhibitory activity on DNA binding of recombinant c-Myc/Max; conditions: read-out: protein assay IC50
T1 construct: made in house
T1 sequence (P01106 whole entry): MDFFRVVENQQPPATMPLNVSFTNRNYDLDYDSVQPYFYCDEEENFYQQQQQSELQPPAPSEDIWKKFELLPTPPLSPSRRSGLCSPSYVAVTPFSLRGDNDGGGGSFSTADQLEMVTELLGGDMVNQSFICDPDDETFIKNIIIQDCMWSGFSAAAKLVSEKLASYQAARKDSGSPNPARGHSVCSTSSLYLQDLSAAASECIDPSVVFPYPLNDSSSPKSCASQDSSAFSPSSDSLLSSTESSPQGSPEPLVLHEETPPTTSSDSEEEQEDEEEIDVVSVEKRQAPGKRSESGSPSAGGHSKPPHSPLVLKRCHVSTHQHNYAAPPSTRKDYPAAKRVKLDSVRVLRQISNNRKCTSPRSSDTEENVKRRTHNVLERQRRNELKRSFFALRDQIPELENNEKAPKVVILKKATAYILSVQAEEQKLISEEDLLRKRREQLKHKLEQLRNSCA
T1 sequence (P61244 whole entry): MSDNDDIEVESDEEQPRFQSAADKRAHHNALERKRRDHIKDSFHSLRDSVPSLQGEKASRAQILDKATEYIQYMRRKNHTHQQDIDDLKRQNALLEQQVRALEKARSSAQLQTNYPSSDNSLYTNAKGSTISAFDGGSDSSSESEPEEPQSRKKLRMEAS
Summary of the method: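 Protein mixture preincubated 5 min at room temperature, compound in DMSO added for 5 min, then biotinylated annealed E-box DNA for 10 min to equilibrium. Complexes resolved on 8% polyacrylamide in 1×TBE (120 V, 1 h), detected with HRP-streptavidin/ECL; protein-DNA complex ratio from band intensity.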

253J = assay: Selectivity evaluation, cytotoxicity in 253J; assay type: cell-based; conditions: Homo sapiens; 253J (malignant), 72 hours, ATP detection
Experimental: as §1, §2
253J: human urinary tract transitional cell carcinoma

Mouse = assay: IV and IP single toxicity test; assay type: in vivo; conditions: for Percentage (deaths), single toxicity evaluation: Mouse

Structure (SMILES)	pIC50 (UM-UC-3)	pIC50 (recombinant c-Myc/Max)	pIC50 (253J)	deaths (Mouse; IV and IP single-dose administration, 40 mpk, 40 mg/kg)	Percentage (deaths), single toxicity evaluation (Mouse; Female, IP 40 mg/kg)	Percentage (deaths), single toxicity evaluation (Mouse; Female, IV 40 mg/kg)	Percentage (deaths), single toxicity evaluation (Mouse; Male, IP 40 mg/kg)
CC(=O)c1c([S+]([O-])Cc2ccc([N+](=O)[O-])cc2)[nH]c2c(Br)ccc(Cl)c2c1=O (stereo not drawn) [Compound 33, 3-acetyl-8-bromo-5-chloro-2-((4-nitrobenzyl)sulfinyl)quinolin-4(1H)-one]	5.80	> 6.00	5.80				
CC(=O)c1c([S+]([O-])Cc2ccccc2)nc2c(Br)ccc(Cl)c2c1O (stereo not drawn) [Compound 4, 3-acetyl-2-(benzylsulfinyl)-8-bromo-5-chloroquinolin-4(1H)-one]	5.82		5.96	No deaths were observed	0 (0/2) %	0 (0/2) %	0 (0/2) %
